# Columns and labels:
# [1] = tested on: Balb/c donor hearts; assay: Allogenic heart transplantation model with static cold storage of donor hearts; type: in vivo, Balb/c donors, B6 recipients; settings: donor hearts cold stored 6 h at 4° C. in UW solution with ACT1 vs UW alone
# [2] = tested on: Cx43; assay: Gap junction stabilization (Cx43 expression) in pre-treated endothelial cells; type: cell-based; settings: ACT1 pretreatment in UW solution; 1 hour and 24 hours post reperfusion; FIG. 1C
# Protocol: (§1) Endothelial cells (EC) were pre-treated with University of Wisconsin (UW) solution only, or UW solution comprising 50 μM or 100 μM ACT1. Cold storage and reperfusion injury, pro-inflammatory cytokine release, and gap junction stabilization (Cx43 expression) were measured.
# [3] = tested on: Pig kidneys; assay: Pig kidney ex vivo perfusion model
# Protocol: Pig kidneys were harvested and flushed with cold HTK solution, and then underwent 18 hours of cold static storage in HTK solution. At 18 hours, the kidneys were placed on a perfusion pump and perfused in cold HTK solution with or without 1 μM ACT1 (500 μL/mL). The control kidney in each pair was perfused with cold HTK and its pair was perfused with cold HTK supplemented with ACT1. While on pump, the resistance values were recorded and samples were collected of the perfusate solution every 30 minutes. At the end of 6 hours on the pump, kidneys were taken off of the pump and biopsies were collected and assessed for viability, function, and characteristics as described below.
# Tubular necrosis (in this study, a measure of cell death) was assessed by basic histology/pathology methods and subjective scoring. Overall epithelial cell death was determined using EpCam as the marker. The relative expression of Vcam and ICam were determined via RT-qPCR in biopsied tissue at the end of each perfusion pump run. LDH ([…] dehydrogenase) was measured as a marker of tissue injury and was quantified using a colorimetric assay.
# [4] = tested on: Aortic allografts; assay: Aortic allograft transplantation, chronic rejection; type: in vivo, Balb/c donors, B6 recipients
# Protocol: Aortic allografts were stored for 6 hours or 24 hours, and assessed on Day 28 after transplantation for neointimal hyperplasia (a hallmark of chronic rejection) and T cell infiltration.
# [5] = tested on: IL-8; assay: Pro-inflammatory cytokine (IL-8) release from pre-treated endothelial cells; type: cell-based; settings: ECs pre-treated with UW solution comprising 50 μM or 100 μM ACT1 vs UW solution only; FIG. 1B
# Protocol: as §1
# [6] = tested on: Endothelial cells (EC); assay: Cold storage and reperfusion injury of pre-treated endothelial cells, measured by electrical resistance; type: cell-based; settings: ECs pre-treated with UW solution comprising 50 μM or 100 μM ACT1 vs UW solution only; 1, 3, 12 and 24 hours post-treatment; FIG. 1A
# Protocol: as §1
# [7] = biopsied tissue at end of perfusion with ACT1-augmented HTK solution vs HTK, FIG. 7
sequence,measurement,setting,value
RQPKIWFPNRRKPWKKRPRPDDLEI [ACT1],number of macrophages (MAC-3+ cells),[1]; FIG. 2C,significantly reduced
same,number of neutrophils (GR1+ cells),[1]; FIG. 2C,significantly reduced
same,IRI as measured by cardiac troponin I,[1]; FIG. 2D,significantly reduced
same,IRI as measured by cumulative histology score,[1]; FIG. 2D,significantly reduced
same,Cx43 expression,[2],increased
same,change in vascular renal resistance,"[3]; 18 h cold static storage in HTK, then 6 hours pump perfusion in cold HTK with 1 μM ACT1 vs without, matched kidney donor pairs #1 and #2, FIGS. 4A, 4B, 5A, 5B",prevents change in vascular renal resistance
same,"tubular necrosis (histology, subjective scoring)","[3]; 18 h cold static storage in HTK, then 6 hours pump perfusion in cold HTK with 1 μM ACT1 vs without, matched kidney donor pairs #1 and #2, FIGS. 4C, 5C",reduces tubular necrosis
same,endothelial cell activation as measured by Icam expression (RT-qPCR),[3]; [7],decreases endothelial cell activation
same,endothelial cell activation as measured by Vcam expression (RT-qPCR),[3]; [7],decreases endothelial cell activation
same,"LDH activity (marker of tissue injury, colorimetric assay)","[3]; cold HTK perfusion with 1 μM ACT1 vs without, paired marginal kidneys, FIG. 6",decreases LDH activity
same,percent intimal expansion,"[4]; 28 days post-treatment, including aortas stored for 24 hours, FIG. 3B",significantly reduced
same,neointimal hyperplasia following aorta transplantation,"[4]; aortic allografts stored 6 hours or 24 hours, assessed on Day 28 after transplantation, FIG. 3A",ameliorates
same,IL-8 release from the ECs,[5],significantly reduced
same,cold storage and reperfusion injury as measured by electrical resistance,[6],prevented cold storage and reperfusion injury
